These compounds were tested against hDGAT2 (Homo sapiens (Human), UniProt Q96PD7) (assay: DGAT2 Enzymatic Activity Assay). Details: hDGAT2 Sf-9 membrane prep; 25 μM diolein, 10 μM oleoyl-CoA; triolein product by LC/MS/MS; read-out: IC50 values for inhibition of DGAT2.
Format: biochemical
Description: Sf-9 insect cells were maintained in Grace's insect cell culture medium with 10% heated-inactivated fetal bovine serum, 1% Pluronic F-68 and 0.14 μg/ml Kanamycine sulfate in Erlenmeyer flasks at 28° C. in a shaker incubator. After infection with untagged hDGAT2 baculovirus at multiplicity of infection (MOI) 0.1 for 48 hours, cells were harvested. Cell pellets were suspended in buffer containing 10 mM Tris-HCl (pH 7.5), 1 mM EDTA (pH 8.0), 250 mM sucrose and Complete Protease Inhibitor Cocktail (Roche Diagnostics Corp., Indianapolis, Ill.), and sonicated on ice. Membrane fractions were isolated by ultracentrifugation (100,000×g pellet), resuspended in the same buffer, and frozen (−80° C.) for later use. The protein concentration was determined with the BCA Protein Assay kit (Pierce Biotechnology Inc., Rockford, Ill.). Expression of protein levels was analyzed by immunoblotting with goat polyclonal DGAT2 antibody C-15 and donkey anti-goat IgG HRP (Santa Cruz Biotechnology, Inc., Santa Cruz, Calif.) followed by detection with ECL reagent (GE Healthcare, Piscataway, N.J.).
LC/MS/MS analyses were performed using Thermal Fisher's LX4-TSQ Vantage system. This system consists of an Agilent binary high-performance liquid chromatography (HPLC) pumps and a TSQ Vantage triple quadrupole MS/MS instrument. For each sample, 2 μL, samples from the top organic layer of in-plate liquid-liquid extraction were injected onto a Thermo Betabasic C4 column (2.1 mm×20 mm, 5 μm particle size). The samples were then eluted using the following conditions; mobile phase: methanol/water with 0.1% ammonium format=92/8 (v/v), flow rate: 1 mL/min, temperature: 25 C. Data was acquired in positive mode using a heated electrospray ionization (HESI) interface. The operational parameters for the TSQ Vantage MS/MS instrument were a spray voltage of 3000 V, capillary temperature of 280° C., vaporizer temperature 400° C., shealth gas 60 arbitrary unit, Aux gas 40 arbitrary units, S-lens 113 and collision gas 0.16 Pascals. […] (SRM) chromatograms of triolein (Q1: 902.9>Q3: 602.3) and internal standard (Q1: 902.9>Q3: 602.3) were collected for 40 sec. The peak area was integrated by Xcalibur Quan software. The ratio between the triolein generated in the reaction and spiked in internal standard were used to generate percentage inhibition and IC50 values. Compound percentage inhibition was calculated by the following formula: Inhibition %=1-[(compound response low control)/(high control low control)]×100%. Potent compounds were titrated and IC50 were calculated by 4 parameter sigmoidal curve fitting formula.
DGAT2 activity was determined by measuring the amount of enzymatic product triolein (1,2,3-Tri(cis-9-octadecenoyl)glycerol) using the membrane prep mentioned above. The assay was carried out in deep well 384 plates in a final volume of 40 μL at room temperature. The assay mixture contained the following: assay buffer (100 mM Tris.Cl, pH 7.0, 20 mM MgCl2, 5% ethanol), 25 μM of diolein, 10 μM of oleoyl-CoA and 10 ng/μL of DGAT2 membrane.

Chain of hDGAT2 (Q96PD7 whole entry): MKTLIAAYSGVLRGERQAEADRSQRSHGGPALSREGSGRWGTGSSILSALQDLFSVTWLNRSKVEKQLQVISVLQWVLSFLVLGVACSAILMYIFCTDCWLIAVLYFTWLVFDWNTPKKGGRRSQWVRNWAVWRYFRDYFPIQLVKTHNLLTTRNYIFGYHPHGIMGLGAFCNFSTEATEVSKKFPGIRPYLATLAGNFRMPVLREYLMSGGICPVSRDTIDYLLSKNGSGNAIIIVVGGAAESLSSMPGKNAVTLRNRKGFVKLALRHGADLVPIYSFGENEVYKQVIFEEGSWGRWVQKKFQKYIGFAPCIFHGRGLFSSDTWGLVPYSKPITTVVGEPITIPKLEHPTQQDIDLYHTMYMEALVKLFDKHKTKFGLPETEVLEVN

| Compound | IC50 |
| --- | --- |
| Cc1noc([C@@H]2C[C@H]2C(=O)NCc2ccc(-c3cccc(OC(F)(F)F)c3)c3c2CN(C(=O)Nc2ccon2)CC3)n1 (relative stereo) [Example 2, N-(isoxazol-3-yl)-8-(((trans)-2-(3-methyl-1,2,4-oxadiazol-5-yl)cyclopropanecarboxamido)methyl)-5-(3-(trifluoromethoxy)phenyl)-3,4-dihydroisoquinoline-2(1H)-carboxamide] | 112 nM |
| CC(C)(C)NC(=O)N1CCc2c(-c3cccc(-n4ccnn4)c3)ccc(CNC(=O)[C@@H]3C[C@H]3c3ccccc3)c2C1 (relative stereo) [Example 5, 5-(3-(1H-1,2,3-triazol-1-yl)phenyl)-N-(tert-butyl)-8-(((trans)-2-phenylcyclopropanecarboxamido)methyl)-3,4-dihydroisoquinoline-2(1H)-carboxamide] | 11.4 nM |
| Cc1noc([C@@H]2C[C@H]2C(=O)NCc2ccc(-c3cccc(C(F)(F)F)c3)c3c2CN(C(=O)Nc2cccnc2)CC3)n1 (relative stereo) [Example 6, 8-(((trans)-2-(3-methyl-1,2,4-oxadiazol-5-yl)cyclopropanecarboxamido)methyl)-N-(pyridin-3-yl)-5-(3-(trifluoromethyl)phenyl)-3,4-dihydroisoquinoline-2(1H)-carboxamide] | 101 nM |
| Cc1cncc(-c2ccc(CNC(=O)[C@@H]3C[C@H]3c3ccccc3)c3c2CCN(C(=O)NC(C)(C)C)C3)c1 (relative stereo) [Example 8, N-(tert-butyl)-5-(5-methylpyridin-3-yl)-8-(((trans)-2-phenylcyclopropanecarboxamido)methyl)-3,4-dihydroisoquinoline-2(1H)-carboxamide] | 82.3 nM |
| CC(C)(C)NC(=O)N1CCc2c(-c3cccc(OC(F)(F)F)c3)ccc(CNC(=O)[C@H]3C[C@@H]3c3ccccc3)c2C1 (relative stereo) [Example 9, N-(tert-butyl)-8-(((trans)-2-phenylcyclopropanecarboxamido)methyl)-5-(3-(trifluoromethoxy)phenyl)-3,4-dihydroisoquinoline-2(1H)-carboxamide] | 31 nM |
| CC(C)(C)NC(=O)N1CCc2c(-c3cncc(C(C)(C)O)c3)ccc(CNC(=O)[C@@H]3C[C@H]3c3ccccc3)c2C1 (relative stereo) [Example 10, N-(tert-butyl)-5-(5-(2-hydroxypropan-2-yl)pyridin-3-yl)-8-(((trans)-2-phenylcyclopropanecarboxamido)methyl)-3,4-dihydroisoquinoline-2(1H)-carboxamide] | 166 nM |
| COc1cccc(-c2ccc(CNC(=O)[C@@H]3C[C@H]3c3nc(C)no3)c3c2CCN(C(=O)NC(C)(C)C)C3)c1 (relative stereo) [Example 11, N-(tert-butyl)-5-(3-methoxyphenyl)-8-(((trans)-2-(3-methyl-1,2,4-oxadiazol-5-yl)cyclopropanecarboxamido)methyl)-3,4-dihydroisoquinoline-2(1H)-carboxamide] | 3 nM |
| Cc1noc([C@@H]2C[C@H]2C(=O)NCc2ccc(-c3cccc(OC(F)(F)F)c3)c3c2CN(C(=O)NC(C)(C)C)CC3)n1 (relative stereo) [Example 12, N-(tert-butyl)-8-(((trans)-2-(3-methyl-1,2,4-oxadiazol-5-yl)cyclopropanecarboxamido)methyl)-5-(3-(trifluoromethoxy)phenyl)-3,4-dihydroisoquinoline-2(1H)-carboxamide] | 3.6 nM |
| CC(C)(C)NC(=O)N1CCc2c(-c3cccc(C(F)(F)F)c3)ccc(CNC(=O)[C@@H]3C[C@H]3c3ccccc3)c2C1 (relative stereo) [Example 14, N-(tert-butyl)-8-(((trans)-2-phenylcyclopropanecarboxamido)methyl)-5-(3-(trifluoromethyl)phenyl)-3,4-dihydroisoquinoline-2(1H)-carboxamide] | 34 nM |
| COc1cccc(-c2ccc(CNC(=O)[C@@H]3C[C@H]3c3ccccc3)c3c2CCN(C(=O)Nc2ccccn2)C3)c1 (relative stereo) [Example 15, 5-(3-methoxyphenyl)-8-(((trans)-2-phenylcyclopropanecarboxamido)methyl)-N-(pyridin-2-yl)-3,4-dihydroisoquinoline-2(1H)-carboxamide] | 3110 nM |
| COc1cccc(-c2ccc(CNC(=O)[C@@H]3C[C@H]3c3ccccc3)c3c2CCN(C(=O)Nc2ccncc2)C3)c1 (relative stereo) [Example 18, 5-(3-methoxyphenyl)-8-(((trans)-2-phenylcyclopropanecarboxamido)methyl)-N-(pyridin-4-yl)-3,4-dihydroisoquinoline-2(1H)-carboxamide] | 2100 nM |
| COc1cccc(-c2ccc(CNC(=O)[C@H]3C[C@@H]3c3cccnc3)c3c2CCN(C(=O)NC(C)(C)C)C3)c1 (relative stereo) [Example 19, N-(tert-butyl)-5-(3-methoxyphenyl)-8-(((trans)-2-(pyridin-3-yl)cyclopropanecarboxamido)methyl)-3,4-dihydroisoquinoline-2(1H)-carboxamide] | 8.5 nM |
| COc1cccc(-c2ccc(CNC(=O)[C@@H]3C[C@H]3c3ccccc3)c3c2CCN(C(=O)Nc2cc(C)no2)C3)c1 (relative stereo) [Example 20, 5-(3-methoxyphenyl)-N-(3-methylisoxazol-5-yl)-8-(((trans)-2-phenylcyclopropanecarboxamido)methyl)-3,4-dihydroisoquinoline-2(1H)-carboxamide] | 1640 nM |
| CC(C)(C)NC(=O)N1CCc2c(-c3cccc(C#N)c3)ccc(CNC(=O)[C@@H]3C[C@H]3c3ccccc3)c2C1 (relative stereo) [Example 22, N-(tert-butyl)-5-(3-cyanophenyl)-8-(((trans)-2-phenylcyclopropanecarboxamido)methyl)-3,4-dihydroisoquinoline-2(1H)-carboxamide] | 16.1 nM |
| COc1cccc(-c2ccc(CNC(=O)[C@@H]3C[C@H]3c3ccccc3)c3c2CCN(C(=O)Nc2ccon2)C3)c1 (relative stereo) [Example 23, N-(isoxazol-3-yl)-5-(3-methoxyphenyl)-8-(((trans)-2-phenylcyclopropanecarboxamido)methyl)-3,4-dihydroisoquinoline-2(1H)-carboxamide] | 302 nM |
| COc1cccc(-c2ccc(CNC(=O)[C@@H]3C[C@H]3c3ccccc3)c3c2CCN(C(=O)Nc2cccnc2)C3)c1 (relative stereo) [Example 24, 5-(3-methoxyphenyl)-8-(((trans)-2-phenylcyclopropanecarboxamido)methyl)-N-(pyridin-3-yl)-3,4-dihydroisoquinoline-2(1H)-carboxamide] | 238 nM |
| COc1cccc(-c2ccc(CNC(=O)[C@@H]3C[C@H]3c3nc(C)no3)c3c2CCN(C(=O)Nc2ccon2)C3)c1 (relative stereo) [Example 25, N-(isoxazol-3-yl)-5-(3-methoxyphenyl)-8-(((trans)-2-(3-methyl-1,2,4-oxadiazol-5-yl)cyclopropanecarboxamido)methyl)-3,4-dihydroisoquinoline-2(1H)-carboxamide] | 144 nM |
| Cc1noc([C@@H]2C[C@H]2C(=O)NCc2ccc(-c3cccc(C(F)(F)F)c3)c3c2CN(C(=O)Nc2ccon2)CC3)n1 (relative stereo) [Example 26, N-(isoxazol-3-yl)-8-(((trans)-2-(3-methyl-1,2,4-oxadiazol-5-yl)cyclopropanecarboxamido)methyl)-5-(3-(trifluoromethyl)phenyl)-3,4-dihydroisoquinoline-2(1H)-carboxamide] | 126 nM |
| Cc1noc2ccc(-c3ccc(CNC(=O)[C@@H]4C[C@H]4c4ccccc4)c4c3CCN(C(=O)NC(C)(C)C)C4)cc12 (relative stereo) [Example 27, N-(tert-butyl)-5-(3-methylbenzo[d]isoxazol-5-yl)-8-(((trans)-2-phenylcyclopropanecarboxamido)methyl)-3,4-dihydroisoquinoline-2(1H)-carboxamide] | 59.8 nM |
| CC(C)(C)NC(=O)N1CCc2c(-c3ccc4ncnn4c3)ccc(CNC(=O)[C@@H]3C[C@H]3c3ccccc3)c2C1 (relative stereo) [Example 29, 5-([1,2,4]triazolo[1,5-a]pyridin-6-yl)-N-(tert-butyl)-8-(((trans)-2-phenylcyclopropanecarboxamido)methyl)-3,4-dihydroisoquinoline-2(1H)-carboxamide] | 4640 nM |
